Measurements taken from patent US20240270701A1, “BETA ADRENERGIC AGONIST AND METHODS OF USING THE SAME” (Curasen Therapeutics, Inc., priority 2021, published 2024).
Like-named read-outs stand apart in the source and are kept apart here.

Legend:
B1-AR = biological target: T1, B1-AR (Homo sapiens, UniProt P08588); assay: cAMP Gs dynamic HTRF assay, cells expressing beta-adrenergic receptor (CHO-K1), B1-AR; format: cell-based; details: for EC50: cAMP HTRF, read-out: pEC50 [B1-AR] (converted); for Emax: relative to full agonist isoproterenol, read-out: Emax (% iso) (%) [B1-AR]
T1 construct: expressed in transfected cells; host or cells: CHO-K1
Procedure: (§1) cAMP homogeneous time-resolved fluorescence (HTRF): experimental methods. Compound efficacy is determined using the cAMP Gs dynamic HTRF assay (Cisbio, catalog #62AM4PEC) largely following the manufacturer's instructions, also detailed below.
(§2) Standard serial dilution curves are 10-point, 5-fold dilutions starting from a highest concentration of 10 μM. Controls present on every assay plate are 0.1% DMSO (vehicle control), 1 μM isoproterenol (full beta-adrenergic agonist control) and […] xamoterol (partial beta-adrenergic agonist control). […] Assay plates are centrifuged at 500×g for 10 seconds. Compounds and IBMX are prepared at 2× final dose to compensate for addition of cells.
(§3) Cell preparation: 1× stimulation buffer, washing PBS (Dulbecco's phosphate-buffered saline, − Mg − Ca; Caisson Labs, catalog #PBL01), assay PBS (Dulbecco's phosphate-buffered saline, + Mg, + Ca; Caisson Labs, catalog #PBL02) and Versene (0.02% EDTA disodium salt solution in PBS without calcium or magnesium; Caisson Labs, catalog #EDL01) are pre-warmed to 37° C. Cells expressing beta-adrenergic receptor were washed in washing PBS to remove growth medium and then released from the surface by incubating with Versene for 5-10 minutes at 37° C. Cells are harvested using assay PBS, counted manually by hemocytometer or by an automated cell counter, pelleted by centrifugation (200×g, 5 minutes) and resuspended in 37° C. 1× stimulation buffer to a final density of 1.5×10^6 cells/mL. 5 μL of the suspended cell solution (7500 cell total) are added to all wells of the 384 well assay plate, the assay plate was covered with an Axygen® plate seal (Corning PCR-SP) and incubated in a humidified 37° C. environment supplemented with 5% CO2 for 30 minutes.
(§4) HTRF reagent addition, reading and data analysis: After 30 minutes of cell stimulation with test compound, the assay plates are centrifuged at 500×g for 10 seconds, and incubation was stopped with the addition of 5 μL cAMP-D2 acceptor, diluted 1:21 in detection and lysis buffer 2 (Cisbio 62CL2FDF) was added to all cells. Subsequently, 5 μL Anti-cAMP-Eu Donor, diluted 1:21 in detection and lysis buffer 2, was added to cells. Plates were sealed and reactions gently ‘vortexed’ at 900 rpm on a Heidolph Titramax 1000 for at least 30 minutes at room temperature. Plates are centrifuged again at 500×g for 10 seconds, and HTRF was measured using a Tecan Spark plate reader at 50 flashes per well. […] Potency estimates (EC50 and pEC50) are derived from the four-parameter nonlinear regression of the concentration-effect curve and an estimate of relative efficacy is determined by comparing the magnitude of the test compound HTRF signal window (min−max dose) with the signal window of the full agonist control, isoproterenol.

B2-AR = biological target: T2, B2-AR (Homo sapiens, UniProt P07550); assay: cAMP Gs dynamic HTRF assay, cells expressing beta-adrenergic receptor (CHO-K1), B2-AR; format: cell-based; details: for EC50: cAMP HTRF, read-out: pEC50 [B2-AR] (converted); for Emax: relative to full agonist isoproterenol, read-out: Emax (% iso) (%) [B2-AR]
T2 construct: expressed in transfected cells; host or cells: CHO-K1
Procedure: as §1, §2, §3, §4

T2 sequence (P07550 whole entry, species assumed): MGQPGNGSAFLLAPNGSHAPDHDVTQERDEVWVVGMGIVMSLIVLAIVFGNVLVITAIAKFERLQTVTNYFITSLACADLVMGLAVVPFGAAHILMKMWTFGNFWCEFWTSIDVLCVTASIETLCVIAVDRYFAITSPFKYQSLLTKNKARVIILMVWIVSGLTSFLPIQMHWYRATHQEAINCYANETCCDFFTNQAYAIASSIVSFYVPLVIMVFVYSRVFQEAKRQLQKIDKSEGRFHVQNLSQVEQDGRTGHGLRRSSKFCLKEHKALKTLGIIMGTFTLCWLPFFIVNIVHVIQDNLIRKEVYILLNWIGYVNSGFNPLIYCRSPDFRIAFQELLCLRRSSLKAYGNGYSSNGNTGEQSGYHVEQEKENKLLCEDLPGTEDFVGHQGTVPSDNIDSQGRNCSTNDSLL
T1 sequence (P08588 whole entry, species assumed): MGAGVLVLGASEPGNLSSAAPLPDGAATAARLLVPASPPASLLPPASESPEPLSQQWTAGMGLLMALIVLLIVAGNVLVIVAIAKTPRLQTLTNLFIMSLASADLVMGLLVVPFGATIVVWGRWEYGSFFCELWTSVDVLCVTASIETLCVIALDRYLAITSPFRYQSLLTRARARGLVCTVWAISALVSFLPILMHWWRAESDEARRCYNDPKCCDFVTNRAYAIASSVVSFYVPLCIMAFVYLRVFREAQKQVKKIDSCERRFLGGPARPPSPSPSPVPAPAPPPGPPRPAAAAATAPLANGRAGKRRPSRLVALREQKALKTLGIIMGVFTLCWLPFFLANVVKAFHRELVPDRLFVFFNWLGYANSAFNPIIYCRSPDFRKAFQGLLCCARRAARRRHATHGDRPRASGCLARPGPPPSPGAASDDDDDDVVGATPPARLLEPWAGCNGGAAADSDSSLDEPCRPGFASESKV

SMILES	EC50 (B1-AR)	Emax (B1-AR)	EC50 (B2-AR; CHO-K1 cells)	Emax (B2-AR; CHO-K1 cells)	Emax (B2-AR; CHO-K1, CHO-K1 cells)
CC1(NC[C@H](O)c2cncc3[nH]ncc23)CCC1 [I-156]	0.1 to 1 µM	70 to 90%	0.01 to 0.1 µM	> 90%	
CC(C)(CO)NC[C@H](O)c1cccc2[nH]cc(F)c12 [I-109]	0.01 to 0.1 µM	> 90%	0.01 to 0.1 µM	> 90%	
CC(C)CNC[C@H](O)c1cc(C#N)cc2[nH]ncc12 [I-160]	0.1 to 1 µM	70 to 90%	0.1 to 1 µM		70 to 90%
CC(C)(C)CNC[C@H](O)c1cccc2c1C(F)(F)C(=O)N2 [I-63]	> 1 µM	< 50%	0.1 to 1 µM	> 90%	
Cc1nc(N)c(Cl)cc1[C@@H](O)CNC1COC1 [I-146]	> 1 µM	< 50%	> 1 µM	> 90%	
CC1(NC[C@H](O)c2cccc3[nH]nc(F)c23)CC1 [I-126]	< 0.01 µM	70 to 90%	< 0.01 µM		> 90%
C[C@H](NC[C@H](O)c1cccc2c1C(F)(F)C(=O)N2)C(C)(C)C [I-2]	> 1 µM	50 to 70%	0.01 to 0.1 µM	> 90%	
COc1ccc(C[C@@H](C)NC[C@H](O)c2cc(F)cc3[nH]ncc23)cc1 [I-15]	< 0.01 µM	> 90%	< 0.01 µM	> 90%	
CC(C)(C)C(C)(C)NC[C@H](O)c1ccc(F)c2[nH]ncc12 [I-8]	> 1 µM	70 to 90%	< 0.01 µM	> 90%	
CC(C)(C)NC[C@H](O)c1cc(C(F)F)cc2[nH]ncc12 [I-123]	> 1 µM	70 to 90%	0.1 to 1 µM		70 to 90%
CC(C)CNC[C@H](O)c1ccc(Cl)c2[nH]ncc12 [I-117]	0.01 to 0.1 µM	50 to 70%	0.01 to 0.1 µM	70 to 90%	
Cc1cc([C@@H](O)CNC2CCC2)c2cn[nH]c2c1 [I-136]	< 0.01 µM	> 90%	< 0.01 µM		> 90%
CCc1n[nH]c2cccc([C@@H](O)CNC(C)(C)C)c12 [I-172]	0.1 to 1 µM	70 to 90%	0.1 to 1 µM	50 to 70%	
CCC(CC)NC[C@H](O)c1cccc2[nH]nc(F)c12 [I-42]	0.01 to 0.1 µM	> 90%	< 0.01 µM		70 to 90%
O[C@@H](CNC1CC1)c1cccc2[nH]cc(F)c12 [I-108]	0.01 to 0.1 µM	> 90%	0.01 to 0.1 µM		> 90%
Cc1nc(N)ccc1[C@@H](O)CNC1(C)CCC1 [I-154]	0.1 to 1 µM	> 90%	< 0.01 µM		> 90%
CC(C)(C)NC[C@H](O)c1cc(OC(F)F)cc2[nH]ncc12 [I-106]	0.1 to 1 µM	70 to 90%	0.01 to 0.1 µM		50 to 70%
CC(C)(CO)NC[C@H](O)c1cccc2[nH]nc(F)c12 [I-132]	< 0.01 µM	> 90%	< 0.01 µM		> 90%
Cc1n[nH]c2cccc([C@@H](O)CNCC(C)C)c12 [I-174]	> 1 µM	70 to 90%	0.1 to 1 µM	50 to 70%	
CC(C)(C)NC[C@H](O)c1cccc2[nH]nc(C(F)F)c12 [I-175]	0.1 to 1 µM	70 to 90%	0.1 to 1 µM	70 to 90%	
CC(C)C(C)(C)NC[C@H](O)c1cccc2[nH]ncc12 [I-29]	0.01 to 0.1 µM	> 90%	< 0.01 µM		> 90%
CC(C)(NC[C@H](O)c1cccc2[nH]ncc12)C1CC1 [I-12]	< 0.01 µM	> 90%	< 0.01 µM	> 90%	
CC(C)(C)NC[C@H](O)c1cccc2[nH]nc(Cl)c12 [I-114]	< 0.01 µM	> 90%	< 0.01 µM		> 90%
COc1ccc(C[C@@H](C)NC[C@H](O)c2cccc3[nH]nc(F)c23)cc1 [I-18]	< 0.01 µM	> 90%	< 0.01 µM	> 90%	

SMILES	EC50 (B1-AR)	Emax (B1-AR)	EC50 (B2-AR; CHO-K1 cells)	Emax (B2-AR; CHO-K1 cells)	Emax (B2-AR; CHO-K1, CHO-K1 cells)
CC1(NC[C@H](O)c2ccc(Cl)c3[nH]ncc23)CCC1 [I-118]	< 0.01 µM	70 to 90%	< 0.01 µM		70 to 90%
CC1(N[C@@H](CO)c2cncc3[nH]ncc23)CC1 [I-149]	> 1 µM	< 50%	> 1 µM	70 to 90%	
CC(C)(C)NC[C@H](O)c1cccc2[nH]nc(C3CC3)c12 [I-125]	0.1 to 1 µM	70 to 90%	0.1 to 1 µM	70 to 90%	
Cn1nc(F)c2c([C@@H](O)CNC(C)(C)C)cccc21 [I-55]	< 0.01 µM	70 to 90%	< 0.01 µM	50 to 70%	
CCC(C)(C)NC[C@H](O)c1cccc2[nH]cc(F)c12 [I-46]	< 0.01 µM	> 90%	< 0.01 µM		> 90%
Cc1ncccc1[C@@H](O)CNC1(C)CCC1 [I-177]	> 1 µM	70 to 90%	0.01 to 0.1 µM		> 90%
CC(C)[C@@H](C)NC[C@H](O)c1cccc2[nH]nc(F)c12 [I-38]	< 0.01 µM	70 to 90%	< 0.01 µM		> 90%
CC(C)(C)NC[C@H](O)c1ccc(OC(F)F)c2[nH]ncc12 [I-102]	0.1 to 1 µM	50 to 70%	< 0.01 µM		< 50%
CC1(NC[C@H](O)c2ccc(Cl)c3[nH]ncc23)CC1 [I-120]	< 0.01 µM	70 to 90%	< 0.01 µM		70 to 90%
CC(C)CNC[C@H](O)c1cccc2[nH]cc(F)c12 [I-111]	0.01 to 0.1 µM	> 90%	0.01 to 0.1 µM		70 to 90%
CCC(C)(C)NC[C@H](O)c1cccc2[nH]nc(C)c12 [I-54]	0.1 to 1 µM	70 to 90%	0.01 to 0.1 µM	70 to 90%	
C[C@@H](NC[C@H](O)c1cccc2[nH]ncc12)C(C)(C)C [I-9]	0.01 to 0.1 µM	> 90%	< 0.01 µM		> 90%
O[C@@H](CNC1CCC1)c1cccc2[nH]nc(Cl)c12 [I-97]	0.01 to 0.1 µM	70 to 90%	< 0.01 µM	> 90%	
CC1(NC[C@H](O)c2cc(C#N)cc3[nH]ncc23)CCC1 [I-157]	0.1 to 1 µM	70 to 90%	0.01 to 0.1 µM		> 90%
CCC(C)(CC)NC[C@H](O)c1cc(F)cc2[nH]ncc12 [I-26]	< 0.01 µM	> 90%	< 0.01 µM		> 90%
CCC(C)(C)NC[C@H](O)c1cccc2[nH]ncc12 [I-47]	< 0.01 µM	70 to 90%	< 0.01 µM		> 90%
CC(C)(C)CNC[C@H](O)c1cc(F)cc2[nH]ncc12 [I-92]	0.01 to 0.1 µM	70 to 90%	< 0.01 µM		> 90%
C[C@H](NC[C@H](O)c1cccc2[nH]ncc12)C1CC1 [I-11]	< 0.01 µM	> 90%	< 0.01 µM		> 90%
CC[C@H](C)NC[C@H](O)c1cc(F)cc2[nH]ncc12 [I-34]	< 0.01 µM	> 90%	< 0.01 µM	70 to 90%	
CC(C)CNC[C@H](O)c1cccc2[nH]nc(Cl)c12 [I-99]	0.1 to 1 µM	70 to 90%	0.01 to 0.1 µM	70 to 90%	
CC1(NC[C@H](O)c2cccc3[nH]ncc23)CC1 [I-129]	< 0.01 µM	> 90%	< 0.01 µM	> 90%	
C[C@@H](NC[C@H](O)c1ccc(F)c2[nH]ncc12)C(C)(C)C [I-16]	0.01 to 0.1 µM	> 90%	< 0.01 µM		> 90%
O[C@@H](CNC1CC1)c1cccc2[nH]ncc12 [I-134]	< 0.01 µM	70 to 90%	< 0.01 µM	> 90%	
CC(C)C(C)(C)NC[C@H](O)c1ccc(F)c2[nH]ncc12 [I-22]	0.01 to 0.1 µM	> 90%	< 0.01 µM	> 90%	
